Reference: patent publication US9435786B2, “Method for determining differentiation level of pluripotent stem cells” (HAMAMATSU PHOTONICS K.K., priority 2012, dated 2016)

Legend:
Format in all cases: cell-based
[1] = system: 253G1 iPS cell line derived from a human adult fibroblast; assay: Flatness of cell surface in a whole visual field, reflection quantitative phase microscope (Example 1); conditions: 12.5 μM retinoic acid, cultured another 4 days
Description: Onto an antireflectively coated glass bottom dish with 35 mm diameter, a 253G1 iPS cell line derived from a human adult fibroblast was seeded at 10 to 20 colonies/dish and cultured on feeder using a Primate ES Medium (manufactured by ReproCELL Incorporated, a commercial name: RCHEMD001) containing 4 ng/mL human basic FGF in the final concentration. The size of one colony was around 200 μn. As the feeder cells, mouse lung fibroblasts were used. The cells were cultured until the third day after the seeding. The medium was replaced once a day. […]
The shape of the cells was observed using a reflection quantitative phase microscope. […]
The bottom surface and surface shapes of the cell were extracted as follows. By using a reflection quantitative phase microscope, three-dimensional data for the cells in a 60 μm×80 μm visual field were obtained every 0.125 μm in the horizontal direction and every 0.32 μm in the vertical direction, and from the obtained data, tomogram images were created. […] From the obtained bottom surfaces and surface shapes, the height of the surface of the cells was measured. The flatness was calculated as a standard deviation of height of the surface of the cells which was standardized with a mean value of height of the surface of the cells, and a statistical processing was done.

[2] = system: 253G1 iPS cell line derived from a human adult fibroblast; assay: Flatness per ROI as standard deviation of height standardized with mean height (Example 2); conditions: ROI unit, 12.5 μM retinoic acid
Description: Onto an antireflectively coated glass bottom dish with 35 mm diameter, a 253G1 iPS cell line derived from a human adult fibroblast was seeded at 10 to 20 colonies/dish and cultured on feeder using a Primate ES Medium (manufactured by ReproCELL Incorporated, a commercial name: RCHEMD001) containing 4 ng/mL human basic FGF in the final concentration. The size of one colony was around 200 μn. As the feeder cells, mouse lung fibroblasts were used. The cells were cultured until the third day after the seeding. The medium was replaced once a day.
A sample of the iPS cells for differentiation, the medium of which was replaced with a Primate ES Medium containing 4 ng/mL human basic FGF and 12.5 μM retinoic acid in the final concentration on the second day after the seeding, was cultured for another 4 days. Retinoic acid is generally used as a reagent for inducing differentiation. In addition, for a control of differentiated cells, MCF7 cells were used which were human breast cancer-derived epithelial cells. The MCF7 cells were seeded at 20% cell density and cultured for 3 days to be approximately confluent using 10% FBS-containing DMEM medium. In each culture system except the MCF7 cell culture system, the medium was replaced once a day.
As to 3 colonies of the undifferentiated iPS cells and 3 colonies of the iPS cells cultured by supplementing retinoic acid, 7 to 15 visual fields around the center of each colony were analyzed. Each visual field was partitioned into six ROIs, and the bottom surfaces and surface shapes of the cells were extracted for each ROI unit to measure the height of the surface of the cells under the same condition as that of Example 1. The size of the ROI was […]×23 μm. The flatness was calculated as a standard deviation of height of the surface of the cells which was standardized with a mean value of height of the surface of the cells, and a statistical processing was done to perform Student's t-test.

[3] = system: 253G1 iPS cell line derived from a human adult fibroblast; assay: Variogram analysis, MSHD standardized with mean height, per ROI (Example 3); conditions: Δr 15 μm, ROI unit
Excerpt: The flatness may also be a value of MSHD in a predetermined horizontal distance. When a surface shape Z (x, y) is given and two points, A (x1, y1) and B (x2, y2), which are apart from each other at a Δr in the horizontal direction on the Z, are selected, the MSHD can be represented by formula (I). MSHD(Δr)=<(z(x1,y1)−z(x2,y2))^2> (I)
wherein z (x1, y1) is a height of a surface of the cell at A, z (x2, y2) is a height of a surface of the cell at B, and < > is an ensemble average. In addition, (x1, y1) and (x2, y2) are in any combination that satisfies formula (II). Δr=((x1−x2)^2+(y1−y2)^2)^1/2 (II)
Under the same condition as that of Example 2, three-dimensional data for the undifferentiated iPS cells and the iPS cells cultured by supplementing retinoic acid were obtained every 0.125 μm in the horizontal direction and every 0.32 μm in the vertical direction, and from the obtained data, tomogram images were created. From the created tomogram images, the bottom surfaces and surface shapes of the cells were extracted and a variogram analysis was performed. Specifically, a value of MSHD when the Δr was within a range of 0.25 μm to 15 μm was calculated from formula (I) as described above, and standardized with a mean value of height of the surface of the cells.
Next, a value of MSHD when the Δr was […] was calculated and standardized with a mean value of height of the surface of the cells to calculate the flatness. The result was shown as a logarithmic graph (FIG. 6). In a statistical analysis, the common logarithm of the result was calculated to perform Student's t-test (Table 3).

[4] = system: 253G1 iPS cell line derived from a human adult fibroblast; assay: Slope of variogram as flatness, per ROI (Example 4); conditions: Δr 5 μm to 15 μm, ROI unit
Excerpt: The flatness may also be a slope of a variogram in a horizontal distance between the predetermined two points. In this case, as the numerical value is smaller, the cell is flatter and less differentiated, and as the numerical value is larger, the cell is less flat and is more differentiated. The horizontal distance between the predetermined two points is not limited in particular, as long as the distance is between points enough to definitely determine the difference between undifferentiated pluripotent stem cell and differentiated cell. The relationship between a mean square height difference and a slope of a variogram can be represented by formula (III). MSHD(Δr)∝Δr^S (III)
wherein S is a slope of a graph which represents a variogram in a double logarithmic manner. It should be noted that because of the nature of a log-log graph, even when constantly multiplying the abscissa Δr or ordinate MSHD through the standardization, the graph is only translated parallelly and the slope S is constant with respect to the constantly multiplied abscissa and ordinate. In addition, as shown in the above-mentioned document of Glenn, N. et al., it is a known mathematical approach to represent a variogram by log-log graph and evaluate the statistical nature of the surface shape by slope S.
Under the same condition as that of Example 3, a variogram analysis was performed using a value of MSHD which was standardized with a mean value of height of the surface of the cells, and a slope of the variogram when the Δr was within a range of 5 μm to 15 μm was calculated as the flatness, using formula (III) as described above. Then, a statistical analysis was done to perform Student's t-test.

[5] = system: 253G1 iPS cell line derived from a human adult fibroblast; assay: Flatness as MSHD per visual field unit (Example 6)
Description: By using images shot using each sample in Example 2 of one colony (15 visual fields) for the undifferentiated iPS cells and 2 colonies (11 and 13 visual fields, respectively) for the iPS cells cultured by supplementing retinoic acid, the height of the surface of the cells for each visual field unit was measured using a reflection quantitative phase microscope under the same condition as that of Example 2. A value of MSHD when the Δr was 5 μm was calculated and standardized with a mean value of height of the surface of the cells, then the common logarithm was taken and the flatness was calculated. A statistical analysis was done to perform Student's t-test.

CC1=C(/C=C/C(C)=C/C=C/C(C)=C/C(=O)O)C(C)(C)CCC1 [Retinoic acid, retinoic acid]
Mean value of height of the surface of the cells ([1]; 60 μm×80 μm visual field): 6.25 μm
Flatness (standard deviation of height standardized with mean height) ([1]; iPS cells, larger value = less flat): 18.9%
Flatness (standard deviation of height standardized with mean height) ([2]; colony RA-1): 0.130
Flatness (standard deviation of height standardized with mean height) ([2]; colony RA-2): 0.107
Flatness (standard deviation of height standardized with mean height) ([2]; colony RA-3): 0.123
Flatness (common logarithm of MSHD standardized with mean height) ([3]; colony RA-1): −1.392
Flatness (common logarithm of MSHD standardized with mean height) ([3]; colony RA-2): −1.517
Flatness (common logarithm of MSHD standardized with mean height) ([3]; colony RA-3): −1.425
Flatness (slope of variogram) ([4]; colony RA-1): 0.848
Flatness (slope of variogram) ([4]; colony RA-2): 0.744
Flatness (slope of variogram) ([4]; colony RA-3): 0.880
Flatness (common logarithm of MSHD standardized with mean height) ([5]; colony RA-1, Δr 5 μm): −1.657
Flatness (common logarithm of MSHD standardized with mean height) ([5]; colony RA-2, Δr 5 μm): −1.796
